One compound from patent US12458809B2, “Method and system of using plasma discharge tube for sensitization of cancer cells” (The George Washington University, priority 2019, dated 2025) can be followed below.

Bounds are passed on as bounds.

Data set [1] has as its system U87 glioblastoma cells. Put plainly: MTT cell viability assay, U87 glioblastoma cells, TMZ with or without plasma discharge tube electro-magnetic field. In kind it is cell-based, human. The conditions noted are these: for inhibition of the growth of U87 cells: then 180 μM TMZ. The procedure:
(§1) In one experiment conducted using the test system 10 in FIGS. 1A-1B, human glioblastoma cancer cell lines U87 and A172 as well as […] E6/E7 were provided from the ATCC (City of Manassas, VA), and were grown in Dulbecco's Modified Eagle Medium (Gibco) supplemented with 10% fetal bovine serum (Atlanta Biologicals) and 1% penicillin-streptomycin solution (Invitrogen) under standard cell culture conditions (humidified atmosphere with 5% CO2 at 37° C.). After one passage, 10,000 cells in 100 μL medium were seeded into 96-well plates such as the plate 134 in FIG. 1A. The cells were cultured for 24 hours before the experiment was performed to ensure proper cell attachment and stability.
(§2) Cell viability was analyzed by using an MTT assay available from Sigma-Aldrich, which is a colorimetric assay for analyzing the cell metabolic activity. The MTT protocol is based on NAD(P)H-dependent cellular oxidoreductases, which reduces the water-soluble MTT ((3-(4,5-dimethylthiazol-2-yl)-2,5-diphenyltetrazolium bromide) to an insoluble formazan product. Cells with active metabolism can transform MTT into formazan; however, dead cells cannot transform MTT into formazan and will not show detectable signal. The measured absorbance at OD 590 nm is proportional to the number of viable cells.
(§3) Following treatment with an electro-magnetic field generated from the example plasma tube, the cells were cultured for 72 hours. A total of 100 μL MTT solution (7 mg Thiazolyl Blue Tetrazolium Blue in 10 ml DMEM) was added to each well. Cells were cultured for an additional 3 hours at 37° C., and then the MTT solution was aspirated and a 100 μL solvent was added to dissolve the formazan crystals. The result was recorded with a Synergy H1 Hybrid Multi-Mode Microplate Reader at 570 nm. For each condition (treatment time, voltage, drug concentration), the experiments were performed in triplicates and were repeated independently 3 times.
In this example, four different experimental cell groups were used. The first experimental group was the control group. For each well of the plates for the control group, the cell culture media was removed before the treatment applied to the other experimental groups. After the treatment was applied to the other experimental groups, 100 μL, fresh cell culture media for each well was added to the cells of the control group.
The second experimental group is the tube-only group. For the tube-only group, the cell culture media was removed before the treatment as well. After that, the cells were treated by placing the plate 134 on the side of the discharge tube 100 in FIG. 1A, with a distance of 1 and 5 mm between the plate 134 and the tube 100. The cells in the plate were exposed to the electro-magnetic field for 1, 4 and 7 minutes. 100 μL fresh cell culture media for each well was added to the cells after the treatment.
The third experiment group is the drug-only group. For the drug-only group, the cell culture media was removed before the treatment via electro-magnetic field applied to the other experimental groups. After the treatment of the other groups, 100 μL fresh cell culture media with 180, 250, 320 μM of TMZ for each well was added to the cells.
The last experimental group is a combination group. For the combination group, the cell culture media was removed before the treatment as well. Then, the cells were treated by placing the plate 134 on the side of the discharge tube 100 at a distance of 1 and 5 mm. The electro-magnetic field was applied for 1, 4 and 7 minutes. Following the treatment, 100 μL, fresh cell culture media with 180, 250, and 320 μM of TMZ for each well was added to the cells.
(Tetrazolium assays rely on reduction of a dye to a coloured formazan, in cell work by metabolically active cells.)

In data set [2] the test system is hTERT/E6/E7 cells. As to the kind of experiment: MTT cell viability assay, non-cancerous hTERT/E6/E7 cells, TMZ with or without plasma discharge tube electro-magnetic field. In kind it is cell-based. The conditions noted are these: after a single 7-minute treatment with discharge tube, E6/E7 non-tumor cell line. The procedure:
as §1
as §2, with “cells. […]” for “cells.”

Data set [3] relates to A172 glioblastoma cells. As to the kind of experiment: MTT cell viability assay, A172 glioblastoma cells, TMZ with or without plasma discharge tube electro-magnetic field. In kind it is cell-based, human. The protocol:
as §1, §2, §3
In this example, four different experimental cell groups were used. The first experimental group was the control group. […]

As to `Cn1nnc2c(C(N)=O)ncn2c1=O` [TMZ, Temozolomide], the “inhibition of the growth of U87 cells (killing effect)” value in data set [1] (1, 4 or 7 minute electro-magnetic field exposure at 1 mm, then 320 μM TMZ) is about 80%. Moreover, the “inhibition of the growth of U87 cells” value in data set [1] (1 minute electro-magnetic field exposure) amounted to 24%; in data set [1] (4 minute electro-magnetic field exposure), 38%; in data set [1] (7 minute electro-magnetic field exposure) it was 72%. Besides, in data set [1] (7 minutes electro-magnetic field exposure prior to TMZ treatment (FIG. 7)), the “increase in U87 cell death compared with non-cancerous cells” value worked out at 43%. Moreover, in data set [1] (Homo sapiens, U-87 MG, 72 h, 180 μM TMZ only, no electro-magnetic field, 72 h, read-out: growth inhibition / cell death of U87 cells), the inhibition at 180 µM amounted to 21%. For the same compound, in data set [1] (TMZ-only treatment (FIG. 7)), the “higher cell death in U87 cells compared to E6/E7 cells” value is 12%. Also, the “increase of anti-cancer efficacy of TMZ (factor)” value in data set [1] (after a single 7-minute treatment with discharge tube, U87) is over 2; in data set [3] (after a single 7-minute treatment with discharge tube, A172) it was over 2. Moreover, the “killing effect on U87 cells” value in data set [1] (electro-magnetic field exposure at 5 mm (so in the source); FIG. 4E) plus TMZ) worked out at 60%. Besides, the “increase of anti-cancer efficacy of TMZ” value in data set [2] is given as “no significant effect”. The “reduction of cell viability of A172 cells” value in data set [3] (7 minutes electro-magnetic field exposure at 1 mm, then 250 μM TMZ) turned out to be 76%. For the same compound, in data set [3] (Homo sapiens, A 172, 250 μM TMZ, read-out: cell growth inhibition of A172 cells), the inhibition at 250 µM is 23%.
